Measurements from patent US20060194819A1, “Activation specific inhibitors of nf-kb and method of treating inflammatory processes in cardio-vascular diseases” (PROCORDE GMBH, priority 2003, published 2006).

Key:
IKK-complex = molecular target: T1, IKK-complex (Homo sapiens, UniProt O14920+O15111+Q9Y6K9); experiment: Cellular IKK kinase assay: HeLa cells treated with compound, TNF alpha stimulation, IKK-complex immunoprecipitated with anti-NEMO-antibody, I kappaB peptide phosphorylation by alpha screen; format: cell-based
T1 construct: IKK-complex was immunoprecipitated with anti-NEMO-antibody; endogenous in cells; host or cells: HeLa
Protocol: Kinase Assay Protocol: HeLa cells were maintained in Dulbecco's modified Eagle's medium (Invitrogen) supplemented with 10% fetal bovine serum, 2 mM L-glutamine, penicillin (50 units/ml) and streptomycin (50 μg/ml). 24 h before treatment with different compounds HeLa cells were plated at a density of 5×10^6 per well in 100-mm cell culture dishes to 90% confluences.
The cells were incubated with different drugs at the concentration indicated for 1 h, washed twice with PBS and stimulated with 20 ng/ml TNF alpha (Roche). After 7 min the cells were washed twice with ice cold PBS followed by scraping and transferring into a 1.5 ml microcentrifuge tube. After centrifugation by 2000 rpm for 2 min by 4° C. the PBS supernatant was removed and 200 μl Lyse-buffer (10 mM Hepes, pH 7.9, 0.1% NP40, 10 mM, 300 mM Sucrose, 10 mM KCl, 15 mM MgCl2, 1 mM DTT, 0.5 mM PMSF and antipain, aprotinin, leupeptin each 0.75 μg/ml (Sigma) was added to the pellet. The resuspended pellet was incubated on ice for 5 min and centrifuged at 13000 g for 30 s. The supernatant, cytosolic extract, was added to 200 μl TNT-buffer (200 mM NaCl, 20 mM Tris/HCl pH 7.5, 1% Triton X-100). Unspecific binding was blocked by incubation with 3 μg of normal rabbit IgG (Sigma) and 6 mg resuspended and prewashed Protein A Sepharose CI-4B (Pharmacia Biotech) for 30 min by 4° C. followed by immunoprecipitation for 1.5 h at 4° C. with 2 μg of anti-NEMO-antibody (Santa Cruz Biotechnology) and 6 mg resuspented and prewashed Protein A Sepharose CI-4B (Parmacia Biotech). […] 6.6 μl of detection-buffer (20 mM Hepes pH 7.5, 100 mM NaCl, 1% Tween, 0.1 mM BSA, 50 μg/ml Protein A-Acceptor beads, 250 μg/ml Streptavidin-Donor beads (both Perkin-Elmer), 4 nM anti-phospho-IKB antibody (Santa Cruz Biotechnology) was dispensed to each well. After incubation for 1.5 h the plate was measured by alpha screen reader (Perkin Elmer). […]

[1] = test system: systemic TNF alpha release; experiment: LPS induced systemic inflammation in rats, serum TNF alpha by ELISA; format: in vivo; settings: compound 1 μg/g IV pre-treatment, LPS 0.33 μg/g IV
Protocol: Systemic inflammatory response in rats was induced by lipopolysaccharide (LPS) shock (IV administration of LPS 0.33 μg/g). Inflammatory and inhibition of inflammation by IV administration of compound 56 (1 μg/g) to rats was determined by TNF alphaquantification in […] serum. TNF alpha was detected with an ELISA kit (Pierce) according to the manufacturer's instructions.

T1 sequence (O14920 whole entry): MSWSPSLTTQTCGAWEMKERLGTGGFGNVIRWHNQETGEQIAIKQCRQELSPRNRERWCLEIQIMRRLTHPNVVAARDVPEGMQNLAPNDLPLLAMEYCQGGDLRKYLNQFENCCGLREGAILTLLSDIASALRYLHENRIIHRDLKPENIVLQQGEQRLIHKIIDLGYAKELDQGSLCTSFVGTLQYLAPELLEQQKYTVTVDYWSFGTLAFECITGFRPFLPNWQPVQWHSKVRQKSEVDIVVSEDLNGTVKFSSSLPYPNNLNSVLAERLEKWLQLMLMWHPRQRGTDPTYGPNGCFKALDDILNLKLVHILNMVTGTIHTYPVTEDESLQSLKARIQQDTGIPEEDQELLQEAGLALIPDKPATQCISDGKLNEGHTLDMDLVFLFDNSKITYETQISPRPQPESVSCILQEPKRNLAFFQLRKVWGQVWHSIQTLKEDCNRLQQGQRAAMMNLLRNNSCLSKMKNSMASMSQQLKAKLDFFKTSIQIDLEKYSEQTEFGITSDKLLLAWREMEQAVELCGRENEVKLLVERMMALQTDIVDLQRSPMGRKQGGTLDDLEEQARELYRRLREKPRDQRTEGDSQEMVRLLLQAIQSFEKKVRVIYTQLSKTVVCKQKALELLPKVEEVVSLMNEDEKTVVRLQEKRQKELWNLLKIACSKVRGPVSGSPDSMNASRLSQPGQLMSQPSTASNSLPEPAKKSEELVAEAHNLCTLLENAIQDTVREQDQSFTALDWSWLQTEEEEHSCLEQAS
T1 sequence (O15111 whole entry): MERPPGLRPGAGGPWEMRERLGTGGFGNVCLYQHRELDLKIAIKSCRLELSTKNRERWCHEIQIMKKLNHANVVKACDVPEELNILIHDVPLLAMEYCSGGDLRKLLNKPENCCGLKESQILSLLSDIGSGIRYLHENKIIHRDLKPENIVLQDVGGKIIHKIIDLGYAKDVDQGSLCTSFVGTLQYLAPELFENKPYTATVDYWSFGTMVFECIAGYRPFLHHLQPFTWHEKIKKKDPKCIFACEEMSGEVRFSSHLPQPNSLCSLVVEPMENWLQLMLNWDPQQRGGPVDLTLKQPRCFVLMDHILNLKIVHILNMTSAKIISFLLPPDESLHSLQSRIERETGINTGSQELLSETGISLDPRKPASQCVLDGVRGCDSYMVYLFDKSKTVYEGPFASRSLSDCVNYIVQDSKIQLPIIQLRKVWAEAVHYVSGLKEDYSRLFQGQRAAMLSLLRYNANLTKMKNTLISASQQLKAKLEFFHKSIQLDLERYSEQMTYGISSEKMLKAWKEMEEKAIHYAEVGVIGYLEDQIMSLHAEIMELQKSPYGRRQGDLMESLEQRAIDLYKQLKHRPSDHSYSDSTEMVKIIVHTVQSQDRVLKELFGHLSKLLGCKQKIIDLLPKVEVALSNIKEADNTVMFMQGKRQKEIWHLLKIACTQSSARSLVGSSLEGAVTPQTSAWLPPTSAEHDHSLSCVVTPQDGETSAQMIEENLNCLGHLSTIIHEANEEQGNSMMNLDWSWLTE
T1 sequence (Q9Y6K9 whole entry): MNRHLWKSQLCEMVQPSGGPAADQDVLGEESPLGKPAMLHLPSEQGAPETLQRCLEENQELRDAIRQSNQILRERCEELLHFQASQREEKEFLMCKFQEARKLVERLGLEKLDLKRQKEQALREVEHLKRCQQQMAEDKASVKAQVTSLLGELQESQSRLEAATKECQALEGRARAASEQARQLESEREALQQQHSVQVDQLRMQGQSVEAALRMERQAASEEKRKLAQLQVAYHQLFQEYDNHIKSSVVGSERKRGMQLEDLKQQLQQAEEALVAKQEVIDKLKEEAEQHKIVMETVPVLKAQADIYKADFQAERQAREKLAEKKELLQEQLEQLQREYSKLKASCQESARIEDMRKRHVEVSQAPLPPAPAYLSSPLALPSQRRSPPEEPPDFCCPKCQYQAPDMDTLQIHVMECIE

IC50 (IKK-complex; HeLa cells, TNF alpha 20 ng/ml, alpha screen, n=4, read-out: IC50 for inhibition of IKK activity (phosphorylation of substrate peptide for I KappaB)): ~850 nM
potency to inhibit the IKK activity, higher than the other 73 family members (IKK-complex; cellular assay with HeLa cells): 10 times
SMILES: CCOC(=O)C1=C(C)N=c2s/c(=C/c3ccc(-c4cccc(C(=O)O)c4)o3)c(=O)n2C1c1ccc(Cl)cc1 (stereo not drawn) [COM 56, 2-[5-(3-Carboxyphenyl)-furan-2-ylmethylene]-5-(4-chlorophenyl)-7-methyl-3-oxo-2,3-dihydro-5H-thiazolo[3,2-a]pyrimidine-6-carboxylic acid ethyl ester]
TNF alpha concentrations in rat serum after LPS [1]: significantly inhibited
